{"source": "patent US4151361A", "about": "“Prostaglandin derivatives” (American Home Products Corporation, priority 1978, dated 1979)", "system": "bronchoconstricting effects of a standard dose of acetylcholine", "assay": "bronchodilation upon aerosol inhalation (inhibition of acetylcholine bronchoconstriction), method of Rosenthale et al.", "assay_type": "in vivo", "details": "guinea pig, i.v. acetylcholine dose producing ca. 30% bronchoconstriction", "from_the_text": "In using the compounds of the invention to produce bronchodilating effects in warm-blooded animals, they may be administered in a variety of dosage forms: oral, injectable, and aerosol inhalation. Aerosol inhalation is a preferred method because of its rapid onset of action, great potency, and specificity of action. The particular dosage to obtain the bronchodilating effect will vary with the particular compound employed, the particular animal involved, and the degree of bronchodilation desired. In the guinea pig, by aerosol inhalation, the dose to produce bronchodilation is from about 0.15 micrograms to about 25 micrograms, and preferably from about 0.15 to about 15 micrograms. The bronchodilation produced upon aerosol inhalation can be observed by the method of Rosenthale et al., J. Pharmacol. Exp. Ther., 178, 541 (1971). Using this procedure the following results were obtained:\n*The dose (i.v.) of acetylcholine which produces a ca. 30%"}
{"smiles": "C#CC(O)(CCCCC)CC[C@H]1[C@H](O)CC(=O)[C@@H]1C/C=C\\CCCC(=O)O", "note": "(stereo partly shown) [13,14-dihydro-15-ethynyl-PGE2, 13,14-Dihydro-15-Ethynyl-PGE2]", "values": [{"measurement": "Percent Inhibition of the Bronchoconstricting effects of a standard dose of acetylcholine", "setting": "dose 1.5 μg", "value": 100, "unit": "%"}, {"measurement": "Percent Inhibition of the Bronchoconstricting effects of a standard dose of acetylcholine", "setting": "dose 15 μg", "value": 91, "unit": "%"}, {"measurement": "Percent Inhibition of the Bronchoconstricting effects of a standard dose of acetylcholine", "setting": "dose .015 μg", "value": 94, "unit": "%"}, {"measurement": "Percent Inhibition of the Bronchoconstricting effects of a standard dose of acetylcholine", "setting": "dose .15 μg", "value": 96, "unit": "%"}]}
{"smiles": "C#CC(O)(CCCCC)CC[C@@H]1[C@@H](C/C=C\\CCCC(=O)O)[C@H](O)C[C@H]1O", "note": "(stereo partly drawn) [13,14-dihydro-15-ethynyl-PGF2β, 13,14-Dihydro-15-Ethynyl PGF2β]", "values": [{"measurement": "Percent Inhibition of the Bronchoconstricting effects of a standard dose of acetylcholine", "setting": "dose 1.5 μg", "value": 44, "unit": "%"}, {"measurement": "Percent Inhibition of the Bronchoconstricting effects of a standard dose of acetylcholine", "setting": "dose 15 μg", "value": 63, "unit": "%"}]}
{"smiles": "C#CC(O)(CCCCC)CC[C@H]1[C@H](O)CC(=O)[C@@H]1CCCCCCC(=O)O", "note": "(stereo partly shown) [tetrahydro-15-ethynyl-PGE2, 15-Ethynyl-Tetrahydro-PGE2]", "values": [{"measurement": "Percent Inhibition of the Bronchoconstricting effects of a standard dose of acetylcholine", "setting": "dose 1.5 μg", "value": 100, "unit": "%"}, {"measurement": "Percent Inhibition of the Bronchoconstricting effects of a standard dose of acetylcholine", "setting": "dose .0015 μg", "value": 51, "unit": "%"}, {"measurement": "Percent Inhibition of the Bronchoconstricting effects of a standard dose of acetylcholine", "setting": "dose .015 μg", "value": 86, "unit": "%"}, {"measurement": "Percent Inhibition of the Bronchoconstricting effects of a standard dose of acetylcholine", "setting": "dose .15 μg", "value": 99, "unit": "%"}]}
{"smiles": "C#C[C@](O)(CCCCC)CC[C@H]1[C@H](O)CC(=O)[C@@H]1CCCCCCC(=O)O", "note": "[tetrahydro-15β-ethynyl-PGE2, 15β-ethynyl-tetrahydro-PGE2]", "values": [{"measurement": "Percent Inhibition of the Bronchoconstricting effects of a standard dose of acetylcholine", "setting": "dose .0015 μg", "value": 58, "unit": "%"}, {"measurement": "Percent Inhibition of the Bronchoconstricting effects of a standard dose of acetylcholine", "setting": "dose .015 μg", "value": 95, "unit": "%"}, {"measurement": "Percent Inhibition of the Bronchoconstricting effects of a standard dose of acetylcholine", "setting": "dose .15 μg", "value": 98, "unit": "%"}]}
